Results taken from ChEMBL document CHEMBL5380777, “Efficacy, Mechanism, and Structure-Activity Relationship of 6-Methoxy Benzofuran Derivatives as a Useful Tool for Senile Osteoporosis” (J Med Chem, 2023).
Calls of active or inactive are those of the source.

Experiments:
[1] = Acute toxicity in wildtype 3 days post-fertilization AB zebrafish at more than 10 uM; design: species or system Danio rerio; settings: in vivo, 72 h
Mus musculus [2] = experiment: Anti osteoporosis in 16 months old C57 mouse assessed as increase in bone mass administered at 30 mg/kg/day, IG continuously for 2 months by micro CT analysis relative to aged control group; assay type: functional, organism-based
Mus musculus [3] = experiment: Anti osteoporosis in 16 months old C57 mouse assessed as increase in bone mass administered at 30 mg/kg/day, IG continuously for 4 months by micro CT analysis relative to aged control group; assay type: functional, organism-based
[4] = Toxicity in 16 months old C57 mouse assessed as change in blood glucose level administered at 30 mg/kg/day, IG continuously for 4 months; assay type: organism-based; settings: in vivo, po, 2920 h
[5] = Toxicity in 16 months old C57 mouse assessed as change in creatinine level administered at 30 mg/kg/day, IG continuously for 4 months; assay type: organism-based; settings: in vivo, po, 2920 h
[6] = Toxicity in 16 months old C57 mouse assessed as change in total protein level administered at 30 mg/kg/day, IG continuously for 4 months; assay type: organism-based; settings: in vivo, po, 2920 h
[7] = Toxicity in 16 months old C57 mouse assessed as change in albumin level administered at 30 mg/kg/day, IG continuously for 4 months; assay type: organism-based; settings: in vivo, po, 2920 h
[8] = Toxicity in 16 months old C57 mouse assessed as change in alkaline phosphatase level administered at 30 mg/kg/day, IG continuously for 4 months; assay type: organism-based; settings: in vivo, po, 2920 h
[9] = Toxicity in 16 months old C57 mouse assessed as change in cholesterol level administered at 30 mg/kg/day, IG for 4 months for every 6 days; assay type: organism-based; settings: in vivo, po, 2920 h
Mus musculus [10] = experiment: Anti osteoporosis in 2.5 months old SAMP-6 rapid aging mouse model assessed as increase in bone mass administered at 30 mg/kg/day, IG continuously for 3 months by micro CT analysis; assay type: functional, organism-based
Mus musculus [11] = experiment: Anti osteoporosis in 2.5 months old SAMP-6 rapid aging mouse model assessed as increase in bone mass administered at 30 mg/kg/day, IG continuously for 3 months in presence of ALN by micro CT analysis; assay type: functional, organism-based
Mus musculus [12] = experiment: Anti osteoporosis in 2.5 months old SAMP-6 rapid aging mouse model assessed as increase in number of osteoblast per square millimeter of the trabecular bone surface administered at 30 mg/kg/day, IG continuously for 3 months […]; assay type: functional, organism-based
Mus musculus [13] = experiment: Anti osteoporosis in 2.5 months old SAMP-6 rapid aging mouse model assessed as upregulation of serum BMP2 administered at 30 mg/kg/day, IG continuously for 3 months […]; assay type: functional, organism-based
[14] = Toxicity in 2.5 months old SAMP-6 rapid aging mouse model assessed as change in body weight administered at 30 mg/kg/day, IG continuously for 3 months; assay type: organism-based; settings: in vivo, po, 2190 h
[15] = Toxicity in 2.5 months old SAMP-6 rapid aging mouse model assessed as change in body weight administered at 30 mg/kg/day, IG in presence of ALN continuously for 3 months; assay type: organism-based; settings: in vivo, po, 2190 h
[16] = Toxicity in 2.5 months old SAMP-6 rapid aging mouse model assessed as morphological change in kidney administered at 30 mg/kg/day, IG continuously for 3 months in presence of ALN by hematoxylin and eosin staining analysis; assay type: organism-based; settings: in vivo, po, 2190 h
[17] = Toxicity in 2.5 months old SAMP-6 rapid aging mouse model assessed as morphological change in liver administered at 30 mg/kg/day, IG continuously for 3 months in presence of ALN by hematoxylin and eosin staining analysis; assay type: organism-based; settings: in vivo, po, 2190 h
[18] = Toxicity in 2.5 months old SAMP-6 rapid aging mouse model assessed as change in serum ALT level administered at 30 mg/kg/day, IG continuously for 3 months; assay type: organism-based; settings: in vivo, po, 2190 h
[19] = Toxicity in 2.5 months old SAMP-6 rapid aging mouse model assessed as change in creatinine level administered at 30 mg/kg/day, IG continuously for 3 months; assay type: organism-based; settings: in vivo, po, 2190 h
Mus musculus [20] = experiment: Anti osteoporosis in 2.5 months old SAMP-6 rapid aging mouse model assessed as bone mass maintenance administered at 30 mg/kg/day, IG continuously for 3 months; assay type: functional, organism-based
Mus musculus [21] = experiment: Anti osteoporosis in 16 months old C57 mouse assessed as proliferating granulocyte level in femur administered at 30 mg/kg/day, IG continuously for 4 months by scRNA-seq analysis (reference value: 6.29%); assay type: functional; settings: 2920 h
Mus musculus [22] = experiment: Anti osteoporosis in 16 months old C57 mouse assessed as GrP level in femur administered at 30 mg/kg/day, IG continuously for 4 months by scRNA-seq analysis (reference value: 12.75%); assay type: functional; settings: 2920 h
Mus musculus [23] = experiment: Anti osteoporosis in 16 months old C57 mouse assessed as chondroblast level in femur administered at 30 mg/kg/day, IG continuously for 4 months by scRNA-seq analysis (reference value: 2.49%); assay type: functional; settings: 2920 h
Mus musculus [24] = experiment: Anti osteoporosis in 16 months old C57 mouse assessed as erythroblast level in femur administered at 30 mg/kg/day, IG continuously for 4 months by scRNA-seq analysis (reference value: 1.91%); assay type: functional; settings: 2920 h
Mus musculus [25] = experiment: Anti osteoporosis in 16 months old C57 mouse assessed as dendritic cell level in femur administered at 30 mg/kg/day, IG continuously for 4 months by scRNA-seq analysis (reference value: 1.34%); assay type: functional; settings: 2920 h
Mus musculus [26] = experiment: Anti osteoporosis in 16 months old C57 mouse assessed as osteoclast level in femur administered at 30 mg/kg/day, IG continuously for 4 months by scRNA-seq analysis (reference value: 6.52%); assay type: functional; settings: 2920 h
Osteoblast [27] = experiment: Upregulation of BMP-2 expression in 16 months old C57 mouse osteoblast by scRNA-seq analysis; assay type: functional, cell-based
Osteoblast [28] = experiment: Upregulation of transcription factor […] expression in 16 months old C57 mouse osteoblast by scRNA-seq analysis; assay type: functional, cell-based
Osteoblast [29] = experiment: Upregulation of transcription factor XBP1 expression in 16 months old C57 mouse osteoblast by scRNA-seq analysis; assay type: functional, cell-based
Osteoblast [30] = experiment: Upregulation of transcription factor HMGA1 expression in 16 months old C57 mouse osteoblast by scRNA-seq analysis; assay type: functional, cell-based
Osteoblast [31] = experiment: Upregulation of transcription factor TAX1BP1 expression in 16 months old C57 mouse osteoblast by scRNA-seq analysis; assay type: functional, cell-based
Osteoblast [32] = experiment: Upregulation of transcription factor MKRN1 expression in 16 months old C57 mouse osteoblast by scRNA-seq analysis; assay type: functional, cell-based
Osteoblast [33] = experiment: Upregulation of transcription factor MYC expression in 16 months old C57 mouse osteoblast by scRNA-seq analysis; assay type: functional, cell-based
Osteoblast [34] = experiment: Upregulation of transcription factor PSMD12 expression in 16 months old C57 mouse osteoblast by scRNA-seq analysis; assay type: functional, cell-based
Osteoblast [35] = experiment: Regulation of osteogenesis in 16 months old C57 mouse osteoblast endoplasmic reticulum assessed as increase in Hspa1b gene by scRNA-seq analysis; assay type: functional, cell-based
Osteoblast [36] = experiment: Regulation of osteogenesis in 16 months old C57 mouse osteoblast endoplasmic reticulum assessed as increase in Hsp90aa1 gene by scRNA-seq analysis; assay type: functional, cell-based
Osteoblast [37] = experiment: Regulation of osteogenesis in 16 months old C57 mouse osteoblast endoplasmic reticulum assessed as increase in CRYAB gene by scRNA-seq analysis; assay type: functional, cell-based
Osteoblast [38] = experiment: Regulation of osteogenesis in 16 months old C57 mouse osteoblast endoplasmic reticulum assessed as increase in Dnaja1 gene by scRNA-seq analysis; assay type: functional, cell-based

Measured: Activity

COc1ccc2cc(C(=O)NCCN(C)C)oc2c1.CS(=O)(=O)O
1.42%: Mus musculus [24]
0.68%: Mus musculus [25]
3.77%: Mus musculus [23]
Toxic: [1]
4.71%: Mus musculus [21]
inactive: Mus musculus [2]
12.12%: Mus musculus [26]
Non-Toxic: [4] | [5] | [6] | [7] | [8] | [9] | [14] | [15] | [16] | [17] | [18] | [19]
6.51%: Mus musculus [22]
active: all other assays above
